Here are results for 23 compounds from PubChem BioAssay AID296 (DTP/NCI, 2004).

For this assay, the system named is MX-1 breast xenograft, nude mice, tumor weight T/C. Nature of the assay: NCI In Vivo Anticancer Drug Screen. Data for tumor model Human Mammary Carcinoma MX-1 Xenograft (intrarenal inoculation) in NU/NU Swiss (nude) mice. The following applies: endpoint: mean tumor weight change, higher = larger tumour. As to the method: The antitumor activity of compounds was measured in mice bearing transplantable tumors. Survival or tumor size were measured and the results are expressed as the measurement made in the treated group (T) divided by the measurement made in the vehicle treated control group (C). The tumor model used in this assay is Human Mammary Carcinoma MX-1 Xenograft (intrarenal inoculation) in NU/NU Swiss (nude) mice

Where [1] appears, read: dose: 150.0 mg/kg/injection, schedule: Q04DX003 (sc), vehicle: saline with Tween-80.
Where [2] appears, read: dose: 300.0 mg/kg/injection, schedule: Q04DX003 (sc), vehicle: saline with Tween-80.
[3] abbreviates: dose: 600.0 mg/kg/injection, schedule: Q04DX003 (sc), vehicle: saline with Tween-80.
Setting [4] is: dose: 1200.0 mg/kg/injection, schedule: Q04DX003 (sc), vehicle: saline with Tween-80.
[5] abbreviates: dose: 400.0 mg/kg/injection, schedule: Q01DX010 (sc), vehicle: Klucel (hydroxypropylcellulose) (HPC).
Setting [6] is: dose: 800.0 mg/kg/injection, schedule: Q01DX010 (sc), vehicle: Klucel (hydroxypropylcellulose) (HPC).
Where [7] appears, read: dose: 300.0 mg/kg/injection, schedule: Q04DX003 (sc), vehicle: Klucel (hydroxypropylcellulose) (HPC).
The mark [8] stands for this setting: dose: 600.0 mg/kg/injection, schedule: Q04DX003 (sc), vehicle: Klucel (hydroxypropylcellulose) (HPC).
[9] abbreviates: dose: 1200.0 mg/kg/injection, schedule: Q04DX003 (sc), vehicle: Klucel (hydroxypropylcellulose) (HPC).
Where [10] appears, read: dose: 2400.0 mg/kg/injection, schedule: Q04DX003 (sc), vehicle: Klucel (hydroxypropylcellulose) (HPC).
Setting [11] is: dose: 1200.0 mg/kg/injection, schedule: Q04DX003 (sc), vehicle: water.
The mark [12] stands for this setting: dose: 75.0 mg/kg/injection, schedule: Q04DX003 (sc), vehicle: saline with Tween-80.
The mark [13] stands for this setting: dose: 2400.0 mg/kg/injection, schedule: Q04DX003 (sc), vehicle: saline with Tween-80.

“And” between values parts separate entries of the source, which are not always exact repeats. Equal entries are not always repeated. Results filed as inconclusive are left out.

`CO[C@@H]1[C@H](O)CC[C@]2(CO2)[C@H]1[C@@]1(C)O[C@@H]1CC=C(C)C`: the T/C is 150 % of control under setting [1], 79 % of control under setting [2], 99 % of control under setting [3] and 96 % of control under setting [4].
Regarding `Nc1nc(N)c2cc(S(=O)(=O)c3ccccc3)ccc2n1`, the T/C runs as follows: under setting [1], 160 % of control; under setting [2], 171 % of control; under setting [3], 185 % of control; under setting [4], 152 % of control.
Regarding `ClCCCCCCCCCCc1ccccc1`, the T/C is, setting by setting: (dose: 100.0 mg/kg/injection, schedule: Q01DX010 (sc), vehicle: Klucel (hydroxypropylcellulose) (HPC)) 89 % of control; (dose: 200.0 mg/kg/injection, schedule: Q01DX010 (sc), vehicle: Klucel (hydroxypropylcellulose) (HPC)) 44 % of control; under setting [5], 116 % of control; under setting [6], 93 % of control.
Regarding `Cc1ccc(S(=O)(=O)OCOS(=O)(=O)c2ccc(C)cc2)cc1`, the T/C runs as follows: under setting [7], 89 % of control; under setting [8], 98 % of control; under setting [9], 85 % of control; under setting [10], 63 % of control.
For `Cc1c(-c2ccc(C3CCCCC3)cc2)nc2ccc(F)cc2c1C(=O)O`, in that order: 86 % of control, 75 % of control, 80 % of control and 96 % of control.
On to `O=C1CN(CO)C(=O)N1CO`, for which the T/C is, setting by setting: (dose: 100.0 mg/kg/injection, schedule: Q04DX003 (ip), vehicle: saline) 93 % of control; (dose: 200.0 mg/kg/injection, schedule: Q04DX003 (ip), vehicle: saline) 67 % of control; (dose: 400.0 mg/kg/injection, schedule: Q04DX003 (ip), vehicle: saline) 28 % of control.
`CC(C)[C@](O)(C(=O)OCC1=CCN2CC[C@@H](O)[C@@H]12)[C@H](C)O`: the T/C (dose: 300.0 mg/kg/injection, schedule: Q04DX003 (sc), vehicle: water) is 56 % of control; the T/C (dose: 600.0 mg/kg/injection, schedule: Q04DX003 (sc), vehicle: water) was 65 % of control; the T/C under setting [11] was 53 % of control; the T/C (dose: 2400.0 mg/kg/injection, schedule: Q04DX003 (sc), vehicle: water) was 51 % of control.
With `O=CC=O`, the T/C (dose: 50.0 mg/kg/injection, schedule: Q01DX010 (sc), vehicle: saline with Tween-80) is 109 % of control; the T/C (dose: 100.0 mg/kg/injection, schedule: Q01DX010 (sc), vehicle: saline with Tween-80) is 74 % of control; the T/C (dose: 200.0 mg/kg/injection, schedule: Q01DX010 (sc), vehicle: saline with Tween-80) is 100 % of control; the T/C (dose: 400.0 mg/kg/injection, schedule: Q01DX010 (sc), vehicle: saline with Tween-80) is 60 % of control.
Turning to `CC(=O)CC(C)=O.CC(=O)CC(C)=O.O=N[O-].O=N[O-].[Co]`, the T/C reads like this: under setting [12], 72 % of control; under setting [1], 67 % of control.
For the compound `CC1(C)N=C(N)N=C(N)N1c1ccc(CCCCc2ccc(S(=O)(=O)F)cc2Cl)c(Cl)c1`, the T/C (dose: 12.5 mg/kg/injection, schedule: Q01DX010 (sc), vehicle: suspension in saline) is 87 % of control; the T/C (dose: 25.0 mg/kg/injection, schedule: Q01DX010 (sc), vehicle: suspension in saline) is 77 % of control; the T/C (dose: 50.0 mg/kg/injection, schedule: Q01DX010 (sc), vehicle: suspension in saline) was 57 % of control.
On to `CC(C)NC(=O)OCc1c(COC(=O)NC(C)C)c(-c2ccc(Cl)c(Cl)c2)n2c1CCC2`, for which the T/C (dose: 25.0 mg/kg/injection, schedule: Q01DX010 (sc), vehicle: distilled water + Tween-80) is -21 % of control; the T/C (dose: 50.0 mg/kg/injection, schedule: Q01DX010 (sc), vehicle: distilled water + Tween-80) was 16 % of control; the T/C (dose: 150.0 mg/kg/injection, schedule: Q04DX003 (ip), vehicle: saline) is 21 % of control; the T/C (dose: 300.0 mg/kg/injection, schedule: Q04DX003 (ip), vehicle: saline) was 28 % of control.
Consider `CC1(C)CC2(C)OC2C2(C1)N=NC(=Nc1ccccc1)O2` (stereo not given), for which the T/C runs as follows: under setting [2], 79 % of control; under setting [3], 81 % of control; under setting [4], 88 % of control; under setting [13], 81 % of control.
Regarding `S=C(Nc1ccc(Cl)c(Cl)c1)N1c2ccccc2-n2cccc2C1c1cccnc1` (stereo not given), the T/C reads like this: under setting [7], 123 % of control; under setting [8], 89 % of control; under setting [9], 108 % of control; under setting [10], 108 % of control.
In the case of `CCOC(=O)CNC(=O)CCCCSc1ncnc2nc[nH]c12`, the T/C runs as follows: under setting [4], 109 % of control; under setting [13], 86 % of control.
Take `N=C(N)Sc1cc(O)ccc1O`: the T/C is 96 % of control (dose: 37.5 mg/kg/injection, schedule: Q04DX003 (sc), vehicle: saline); 106 % of control (dose: 75.0 mg/kg/injection, schedule: Q04DX003 (sc), vehicle: saline); 79 % of control (dose: 150.0 mg/kg/injection, schedule: Q04DX003 (sc), vehicle: saline); 90 % of control (dose: 300.0 mg/kg/injection, schedule: Q04DX003 (sc), vehicle: saline).
Consider `CC1(C)COCN1COC1CCCCC1`, for which the T/C is, setting by setting: (dose: 100.0 mg/kg/injection, schedule: Q04DX003 (sc), vehicle: saline) 24 % of control; (dose: 200.0 mg/kg/injection, schedule: Q04DX003 (sc), vehicle: saline) 32 % of control; (dose: 400.0 mg/kg/injection, schedule: Q04DX003 (sc), vehicle: saline) 78 % of control; (dose: 800.0 mg/kg/injection, schedule: Q04DX003 (sc), vehicle: saline) 56 % of control.
`COc1ccc(C(=O)C(CN(C)C)CN(C)C)cc1`: the T/C (dose: 12.5 mg/kg/injection, schedule: Q04DX003 (sc), vehicle: saline) is 101 % of control; the T/C (dose: 25.0 mg/kg/injection, schedule: Q04DX003 (sc), vehicle: saline) was 123 % of control; the T/C (dose: 50.0 mg/kg/injection, schedule: Q04DX003 (sc), vehicle: saline) was 85 % of control.
`c1ccc([C@H]2CN3CCSC3=N2)cc1`: the T/C is, setting by setting: (dose: 15.0 mg/kg/injection, schedule: Q04DX003 (sc), vehicle: saline) 80 % of control; (dose: 30.0 mg/kg/injection, schedule: Q04DX003 (sc), vehicle: saline) 71 % of control; (dose: 60.0 mg/kg/injection, schedule: Q04DX003 (sc), vehicle: saline) 75 % of control.
`CC1=C(C)C(=O)O[C@@H]([C@](C)(O)[C@]2(O)CC[C@@]3(O)[C@@H]4C[C@H]5O[C@]56[C@@H](O)C=CC(=O)[C@]6(C)[C@H]4CC[C@]23C)C1`: the T/C (dose: 16.0 mg/kg/injection, schedule: Q01DX010 (sc), vehicle: saline) was 155 % of control; the T/C (dose: 32.0 mg/kg/injection, schedule: Q01DX010 (sc), vehicle: saline) is 95 % of control; the T/C (dose: 64.0 mg/kg/injection, schedule: Q01DX010 (sc), vehicle: saline) was 75 % of control.
Turning to `COc1ccc(S(=O)(=O)N=N/C=C2\C=CC=CN2O)cc1OC`, the T/C was 81 % of control (dose: 37.5 mg/kg/injection, schedule: Q04DX003 (sc), vehicle: saline with Tween-80); 61 % of control under setting [12]; 47 % of control under setting [1]; 64 % of control under setting [2].
Take `C=C(NC(=O)C(=C)NC(=O)c1csc(C2=NC3c4csc(n4)C4NC(=O)c5csc(n5)C(C(C)(O)C(C)O)NC(=O)C5CSC(=N5)/C(=C/C)NC(=O)C(C(C)O)NC(=O)c5csc(n5)C3(CC2)NC(=O)C(C)NC(=O)C(=C)NC(=O)C(C)NC(=O)C(C(C)CC)NC2C=Cc3c(C(C)O)cc(nc3C2O)C(=O)OC4C)n1)C(N)=O` (stereo not given): the T/C under setting [5] was 73 % of control; the T/C under setting [6] is 98 % of control; the T/C (dose: 1600.0 mg/kg/injection, schedule: Q01DX010 (sc), vehicle: Klucel (hydroxypropylcellulose) (HPC)) is 81 % of control; the T/C (dose: 3200.0 mg/kg/injection, schedule: Q01DX010 (sc), vehicle: Klucel (hydroxypropylcellulose) (HPC)) was 117 % of control.
For the compound `O=C(Nc1nncs1)c1cccs1`, the T/C under setting [2] was 98 % of control, the T/C under setting [3] was 177 % of control, the T/C under setting [4] is 115 % of control and the T/C under setting [13] was 65 % of control.
For `CCCCCCCCCCCCCCCC(=O)Nc1ccn(C2OC(CO)C(O)C2O)c(=O)n1` (stereo not given), the T/C under setting [11] was -65 % of control and -50 % of control.
